Experiments:
[1] = tested on: food intake; assay: Effect of single administration of TNP in the third ventricle on food intake; assay type: in vivo, mouse
Method: (§1) Adult male C57BL/6 mice were purchased from Orient Bio (Gyeonggi-do, Korea) and the mice were allowed to take the standard diet (Agri Purina, Seoul, Korea) freely. The mice were raised in the controlled condition (temperature: 22±1° C., light/dark cycle: 12/12 hr (light condition: 8:00 am˜8:00 pm)). A cannula was intubated in the third ventricle of the mouse for the administration of TNP. For the cannulation, the mouse was anesthetized with a mixture of Zoletil and Rumpun (2:1 v/v, 10 μl/g weight) and then a permanent 26-gauge stainless steel cannula was inserted in the third ventricle of the mouse. The insertion position of the cannula was 1.8 mm back from the bregma and 5.0 mm down from the sagittal sinus. The exact cannulation site was confirmed by the positive dipsogenic response after the administration of angiotensin II (50 ng). Only those mice that were confirmed to have cannulae in the correct location were used for data analysis. After the 7 day recovery period, the mice were massaged every day for 1 week in order to minimize the stress response to the experiment.
The mice cannulated in Example 1 were fasted for 18 hours and then administered at different concentrations of TNP (0.4 pg, 0.04 ng, and 0.4 ng; Calbiochem) in the early light phase (9:00 am˜11:00 am). Before the administration, TNP was dissolved in 0.9% saline. 2 μl of the TNP dissolved in saline at different concentrations (0.4 pg, 0.04 ng, and 0.4 ng) was administered via the cannula into the third ventricle. For the control, the same amount of saline was administered.
5 mice treated with saline, 5 mice treated with 0.4 pg of TNP, 5 mice treated with 0.04 ng of TNP, and 4 mice treated with 0.4 ng of TNP were fasted for 18 hours as described in Example 2. TNP was administered once into the third ventricle of the mice. Then, the mice were allowed to take food freely and the food intake was measured for 24 hours.
All experimental values of the present invention were expressed as mean±standard error ([…]). Statistical analysis was performed by Student's t-test. […]

[2] = tested on: weight gaining; assay: Effect of single administration of TNP in the third ventricle on weight control; assay type: in vivo, mouse; details: mice fasted for 18 hours; single administration of 0.4 pg, 0.04 ng or 0.4 ng into the third ventricle; observed for 24 hours; FIG. 2
Method: as §1
The mice cannulated in Example 1 were fasted for 18 hours and then administered at different concentrations of TNP (0.4 pg, 0.04 ng, and 0.4 ng; Calbiochem) in the early light phase (9:00 am˜11:00 am). Before the administration, TNP was dissolved in 0.9% saline. […]

[3] = single administration into the third ventricle, 0.4 pg, 0.04 ng, 0.4 ng, vs saline

SMILES: O=[N+]([O-])c1ccc(CNc2nc(NCc3cccc(C(F)(F)F)c3)nc3[nH]cnc23)cc1 [TNP, N2-(m-Trifluorobenzyl), N6-(p-nitrobenzyl)purine]
- food intake compared to the mice administered with saline ([1]; male C57BL/6 mice fasted for 18 hours, single administration of 0.4 pg, 0.04 ng or 0.4 ng into the third ventricle, food intake measured for 24 hours, FIG. 1): significantly reduced
- time after administration at which the food intake reduction effect was still maintained [1, 3]: ≥ 24 h
- time after administration from which the food intake reduction effect was significant [1, 3]: 2 h
- weight gaining compared to the control mice treated with saline [2]: significantly suppressed
